Experimental findings from patent publication US9144238B2, “Active compound combinations” (BAYER INTELLECTUAL PROPERTY GMBH, priority 2011, dated 2015) are described below.

“And” between values parts separate entries of the source, which are not always exact repeats. Identical values can stand only once.

The subject of series [1] is Phytophthora infestans. Nature of the series: whole plant or invertebrate. It counts as in vivo. Conditions: tomatoes; for pest or weed control at 1 ppm / pest or weed control at 2 ppm: read-out: Efficacy in % found, Table 4; for pest or weed control at 2 ppm: 2 ppm a.i.; for pest or weed control at 10 ppm: read-out: Efficacy in % found, Table 1.
The nature of series [2]: physchem.
Method: Measurement of log P values was performed according EEC directive 79/831 Annex V.A8 by HPLC (High Performance Liquid
Chromatography) on reversed phase columns with the following methods:
^[a]Measurement was done at pH 2.3 with 0.1% phosphoric acid and acetonitrile as eluent.
The test system of series [3] is Alternaria solani. Put plainly: whole plant or invertebrate. It counts as in vivo. Conditions: for Efficacy in % found: in vivo.
Series [4] has as its system Venturia inaequalis. Nature of the series: Venturia test (apples)/preventive. It counts as in vivo. The settings on record: for pest or weed control at 4 ppm: Table 10, 4 ppm a.i. As for the experimental part:
To produce a suitable preparation of active compound, 1 part by weight of active compound is mixed with the stated amounts of solvent and emulsifier, and the concentrate is diluted with water to the desired concentration.
To test for preventive activity, young plants are sprayed with the preparation of active compound at the stated rate of application. After the spray coating has dried on, the plants are inoculated with an aqueous conidia suspension of the causal agent of apple scab (Venturia inaequalis) and then remain for 1 day in an incubation cabinet at approximately 20° C. and a relative atmospheric humidity of 100%.
The plants are then placed in a greenhouse at approximately 21° C. and a relative atmospheric humidity of approximately 90%.
The test is evaluated 10 days after the inoculation. 0% means an efficacy which corresponds to that of the untreated control, while an efficacy of 100% means that no disease is observed.

[5] abbreviates: Venturia inaequalis, 240 h, read-out: Efficacy in % found.
[6] abbreviates: Alternaria solani, 72 h, read-out: Efficacy in % found.
Setting [7] is: Phytophthora infestans, 72 h, 1 ppm a.i.
[8] abbreviates: Phytophthora infestans, 72 h, 10 ppm a.i.

For the molecule `C[C@@]1(c2ccc(Oc3ccccc3)cc2)OC(=O)N(Nc2ccccc2)C1=O` (racemic) [3.9, famoxadone], the pest or weed control at 2.5 ppm in series [1] (Phytophthora infestans, 72 h, read-out: Efficacy in % found, Table 5, 2.5 ppm a.i.) was determined as 30%.

In turn, `O=C(Cn1nc(C(F)F)cc1C(F)F)N1CCC(c2nc(C3=NOC(c4c(F)ccc(O)c4F)C3)cs2)CC1` (stereo not drawn) [2-[3,5-bis(difluoromethyl)-1H-pyrazol-1-yl]-1-(4-{4-[5-(2,6-difluoro-3-hydroxyphenyl)-4,5-dihydro-1,2-oxazol-3-yl]-1,3-thiazol-2-yl}piperidin-1-yl)ethanone] yielded a chromatographic logP in series [2] (pH 2.7) of 2.61.

Take `O=C(Cn1nc(C(F)F)cc1C(F)F)N1CCC(c2nc(C3=NOC(c4c(F)cc(O)cc4F)C3)cs2)CC1` (stereo not drawn) [2-[3,5-bis(difluoromethyl)-1H-pyrazol-1-yl]-1-(4-{4-[5-(2,6-difluoro-4-hydroxyphenyl)-4,5-dihydro-1,2-oxazol-3-yl]-1,3-thiazol-2-yl}piperidin-1-yl)ethanone]: the chromatographic logP in series [2] (pH 2.7) is 2.58.

Take `Cn1cc(C(=O)Nc2ccc(F)cc2-c2ccc(Cl)c(Cl)c2)c(C(F)F)n1` [2.1, bixafen]: the “Efficacy in % found” value turned out to be 60% in series [3] and 26% in series [4] (Table 10, 0.5 ppm a.i.).

Take `O=C(NCCc1ncc(C(F)(F)F)cc1Cl)c1ccccc1C(F)(F)F` [2.6, fluopyram]: the pest or weed control at 4 ppm in series [4] (setting [5]) is 33%.

Consider `Cn1cc(C(=O)Nc2ccccc2-c2cc(F)c(F)c(F)c2)c(C(F)F)n1` [2.8, fluxapyroxad], for which the “Efficacy in % found” value in series [3] worked out at 63%; in series [4] (Table 10, 0.5 ppm a.i.), 54%.

Take `CC(C)C1C2CCC1c1c(NC(=O)c3cn(C)nc3C(F)F)cccc12` (stereo not drawn) [2.12, isopyrazam]: the “Efficacy in % found” value came to 60% in series [3] and 76% in series [4] (Table 10, 0.5 ppm a.i.).

As for `COC(c1ccc(Cl)cc1Cl)C(C)NC(=O)c1cn(C)nc1C(F)F` (stereo not drawn) [2.27, N-[1-(2,4-dichlorophenyl)-1-methoxypropan-2-yl]-3-(difluoromethyl)-1-methyl-1H-pyrazole-4-carboxamide], the pest or weed control at 4 ppm in series [4] (setting [5]) was found to be 87%.

As for `Cn1cc(C(=O)Nc2cccc3c2C2CCC3C2=C(Cl)Cl)c(C(F)F)n1` (stereo not drawn) [2.29, N-[9-(dichloromethylene)-1,2,3,4-tetrahydro-1,4-methanonaphthalen-5-yl]-3-(difluoromethyl)-1-methyl-1H-pyrazole-4-carboxamide], the pest or weed control at 0.25 ppm in series [3] (setting [6]) came out at 40%.

`CCCCCCCCc1c(CC)nc2ncnn2c1N` [3.1, ametoctradin]: the “Efficacy in % found” value in series [1] (Table 1, 10 ppm a.i.) stood at 0%; in series [1] (Table 5, 2.5 ppm a.i.), 52%.

Consider `CO/C=C(/C(=O)OC)c1ccccc1Oc1cc(Oc2ccccc2C#N)ncn1` [3.3, azoxystrobin], for which the “Efficacy in % found” value in series [1] (Table 4, 1 ppm a.i.) came to 0%; in series [3], 9%.

With `Cc1ccc(-c2c(Cl)nc(C#N)n2S(=O)(=O)N(C)C)cc1` [3.4, cyazofamid], the pest or weed control at 0.1 ppm in series [1] (Phytophthora infestans, 72 h, read-out: Efficacy in % found, Table 5, 0.1 ppm a.i.) is 0%.

Turning to `CSC1=N[C@@](C)(c2ccccc2)C(=O)N1Nc1ccccc1` [3.10, fenamidone], in series [1] (Phytophthora infestans, 72 h, read-out: Efficacy in % found, Table 2, 0.25 ppm a.i.), the pest or weed control at 0.25 ppm came out at 6%.

As for `CO/N=C(/C1=NOCCO1)c1ccccc1Oc1ncnc(Oc2ccccc2Cl)c1F` [3.12, fluoxastrobin], the pest or weed control at 1 ppm in series [1] (setting [7]) worked out at 0%. The pest or weed control at 2 ppm in series [1] (Phytophthora infestans, 72 h) was determined as 0%. For the same molecule, the pest or weed control at 0.5 ppm in series [3] (setting [6]) was 18%.

For the molecule `COC(=O)N(OC)c1ccccc1COc1ccn(-c2ccc(Cl)cc2)n1` [3.17, pyraclostrobin], in series [1] (setting [7]), the pest or weed control at 1 ppm amounted to 0%. In series [1] (Phytophthora infestans, 72 h), the pest or weed control at 2 ppm is 0%. Further, in series [3] (setting [6]), the pest or weed control at 0.25 ppm was determined as 18%.

With `CON=C(C(=O)OC)c1ccccc1CON=C(C)c1cccc(C(F)(F)F)c1` [3.22, trifloxystrobin], the pest or weed control at 1 ppm in series [1] (setting [7]) is 0%. Besides, in series [1] (Phytophthora infestans, 72 h), the pest or weed control at 2 ppm was determined as 0%. Also, the pest or weed control at 0.25 ppm in series [3] (setting [6]) was 18%; in series [4] (Venturia inaequalis, 240 h, Table 11, 0.25 ppm a.i., read-out: Efficacy in % found), 0%.

For `Oc1cc(F)c(C2CC(c3csc(C4CCNCC4)n3)=NO2)c(F)c1` (stereo not drawn) [4-{4-[5-(2,6-difluoro-4-hydroxyphenyl)-4,5-dihydro-1,2-oxazol-3-yl]-1,3-thiazol-2-yl}piperidinium chloride], in series [2] (pH 2.7), the chromatographic logP was 0.98.

Take `O=C(NCc1ncc(C(F)(F)F)cc1Cl)c1c(Cl)cccc1Cl` [4.6, fluopicolide]: the “Efficacy in % found” value in series [1] (Table 5, 0.5 ppm a.i.) was found to be 12%.

As for `[Cu+2].[OH-].[OH-]` [5.5, copper hydroxide], the “Efficacy in % found” value in series [3] is 16%.

Regarding `[Cl-].[Cu+2].[Cu+2].[OH-].[OH-].[OH-]` [5.8, copper oxychloride], the “Efficacy in % found” value in series [1] (Table 2, 5 ppm a.i.) is on record as 12%; in series [1] (Table 2, 10 ppm a.i.) it was 10%; in series [3], 7%; in series [4] (Table 11, 50 ppm a.i.) it was 54%.

Regarding `C#CCOc1ccc(CCNC(=O)C(OCC#C)c2ccc(Cl)cc2)cc1OC` (stereo not drawn) [9.5, mandipropamid], the “Efficacy in % found” value in series [1] (Table 1, 0.2 ppm a.i.) came out at 0%.

Regarding `O=[N+]([O-])c1cc(C(F)(F)F)c(Cl)c([N+](=O)[O-])c1Nc1ncc(C(F)(F)F)cc1Cl` [14.4, fluazinam], the pest or weed control at 10 ppm in series [1] (setting [8]) is 0%.

Regarding `CCNC(=O)NC(=O)/C(C#N)=N/OC` [15.9, cymoxanil], the pest or weed control at 10 ppm in series [1] (setting [8]) was 0%.

With `OP(O)O` [15.41, phosphorous acid], in series [1] (Table 1, 10 ppm a.i.), the “Efficacy in % found” value worked out at 0%.

In the case of `Cn1c(=O)c2sc3c(=O)n(C)c(=O)c3sc2c1=O` [15.60, 2,6-dimethyl-1H,5H-[1,4]dithiino[2,3-c:5,6-c′]dipyrrole-1,3,5,7(2H,6H)-tetrone], the pest or weed control at 5 ppm in series [1] (Phytophthora infestans, 72 h, read-out: Efficacy in % found, Table 2, 5 ppm a.i.) stood at 49%. Also, the pest or weed control at 25 ppm was 29% in series [3] (setting [6]) and 54% in series [4] (Venturia inaequalis, 240 h, Table 11, 25 ppm a.i., read-out: Efficacy in % found).

Regarding `C#CCOc1cccc(C2CC(c3csc(C4CCN(C(=O)Cn5nc(C(F)F)cc5C(F)F)CC4)n3)=NO2)c1` (stereo not drawn) [(I-3), 2-[3,5-bis(difluoromethyl)-1H-pyrazol-1-yl]-1-[4-(4-{5-[3-(prop-2-yn-1-yloxy)phenyl]-4,5-dihydro-1,2-oxazol-3-yl}-1,3-thiazol-2-yl)piperidin-1-yl]ethanone], the values for the chromatographic logP in series [2] (pH 2.7) and in series [2] (pH 7.8) were 3.16 and 3.24, respectively.

In series [2] (pH 2.7), `C#CCOc1cc(F)c(C2CC(c3csc(C4CCN(C(=O)Cn5nc(C(F)F)cc5C(F)F)CC4)n3)=NO2)c(F)c1` (stereo not drawn) [(I-4), 2-[3,5-bis(difluoromethyl)-1H-pyrazol-1-yl]-1-[4-(4-{5-[2,6-difluoro-4-(prop-2-yn-1-yloxy)phenyl]-4,5-dihydro-1,2-oxazol-3-yl}-1,3-thiazol-2-yl)piperidin-1-yl]ethanone] showed a chromatographic logP of 3.3.

`C#CCOc1ccc(F)c(C2CC(c3csc(C4CCN(C(=O)Cn5nc(C(F)F)cc5C(F)F)CC4)n3)=NO2)c1F` (stereo not drawn) [(I-7), 2-[3,5-bis(difluoromethyl)-1H-pyrazol-1-yl]-1-[4-(4-{5-[2,6-difluoro-3-(prop-2-yn-1-yloxy)phenyl]-4,5-dihydro-1,2-oxazol-3-yl}-1,3-thiazol-2-yl)piperidin-1-yl]ethanone] showed a chromatographic logP in series [2] (pH 2.7) of 3.17.

For the molecule `C#CCOc1ccc(F)cc1C1CC(c2csc(C3CCN(C(=O)Cn4nc(C(F)F)cc4C(F)F)CC3)n2)=NO1` (stereo not drawn) [(I-8), 2-[3,5-bis(difluoromethyl)-1H-pyrazol-1-yl]-1-[4-(4-{5-[5-fluoro-2-(prop-2-yn-1-yloxy)phenyl]-4,5-dihydro-1,2-oxazol-3-yl}-1,3-thiazol-2-yl)piperidin-1-yl]ethanone], the chromatographic logP in series [2] (pH 2.7) is 3.37; in series [2] (pH 7.8) it was 3.44.

Turning to `C#CCOc1cc(OC)ccc1C1CC(c2csc(C3CCN(C(=O)Cn4nc(C(F)F)cc4C(F)F)CC3)n2)=NO1` (stereo not drawn) [(I-9), 2-[3,5-bis(difluoromethyl)-1H-pyrazol-1-yl]-1-[4-(4-{5-[4-methoxy-2-(prop-2-yn-1-yloxy)phenyl]-4,5-dihydro-1,2-oxazol-3-yl}-1,3-thiazol-2-yl)piperidin-1-yl]ethanone], the chromatographic logP stood at 3.25 in series [2] (pH 2.7) and 3.2 in series [2] (pH 7.8).

Regarding `C#CCOc1c(F)cccc1C1CC(c2csc(C3CCN(C(=O)Cn4nc(C(F)F)cc4C(F)F)CC3)n2)=NO1` (stereo not drawn) [(I-10), 2-[3,5-bis(difluoromethyl)-1H-pyrazol-1-yl]-1-[4-(4-{5-[3-fluoro-2-(prop-2-yn-1-yloxy)phenyl]-4,5-dihydro-1,2-oxazol-3-yl}-1,3-thiazol-2-yl)piperidin-1-yl]ethanone], the chromatographic logP came to 3.37 in series [2] (pH 2.7) and 3.48 in series [2] (pH 7.8).

For the molecule fosetyl-aluminium [15.24], the “Efficacy in % found” value in series [1] (Table 1, 10 ppm a.i.) is given as 0%.

For the molecule metiram [5.25], the “Efficacy in % found” value in series [1] (Table 2, 5 ppm a.i.) worked out at 12%; in series [1] (Table 2, 10 ppm a.i.) it was 24%; in series [3], 36%.

Turning to propamocarb hydrochloride [10.10], the “Efficacy in % found” value in series [1] (Table 2, 5 ppm a.i.) is recorded as 7%; in series [1] (Table 4, 10 ppm a.i.) it was 18%.

Take propineb [5.29]: the “Efficacy in % found” value in series [1] (Table 3, 10 ppm a.i.) is 24%; in series [3], 2% and 0%.

As usually defined, the chromatographic logP is lipophilicity estimated from chromatographic retention. The low end stands for lower lipophilicity, the high end for higher lipophilicity.
